AC50 data for 1 compound are collected here from PubChem BioAssay AID488840 (Broad Institute, 2010).

SMILES strings stand for the structures. The source made the active and inactive calls.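 The calls were made as follows: active = half-maximal dose of signal decrease from fit no higher than ten times the top valid tested dose; inconclusive = fit invalid, or curve flat with 30 to 70% inhibition; inactive = the rest.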 Where only a bound is given, the exact number is not on record here.

The assay deals with Lysine-specific demethylase 4A (Homo sapiens) (UniProt O75164). Put plainly: inhibition of JMJD2A H3K9me3 demethylation – biochemical, DELFIA europium, cherry-picked samples, selectivity assay for GASC-1 inhibitor project, dose response (AID 488840).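 Also: europium signal reports the dimethyl H3K9 product detected by antibody so inhibitors lower it.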 To be noted: GST-JMJD2A(1-420) H3K9me3 demethylation.
Lysine-specific demethylase 4A (Homo sapiens), sequence (O75164 whole entry, looked up): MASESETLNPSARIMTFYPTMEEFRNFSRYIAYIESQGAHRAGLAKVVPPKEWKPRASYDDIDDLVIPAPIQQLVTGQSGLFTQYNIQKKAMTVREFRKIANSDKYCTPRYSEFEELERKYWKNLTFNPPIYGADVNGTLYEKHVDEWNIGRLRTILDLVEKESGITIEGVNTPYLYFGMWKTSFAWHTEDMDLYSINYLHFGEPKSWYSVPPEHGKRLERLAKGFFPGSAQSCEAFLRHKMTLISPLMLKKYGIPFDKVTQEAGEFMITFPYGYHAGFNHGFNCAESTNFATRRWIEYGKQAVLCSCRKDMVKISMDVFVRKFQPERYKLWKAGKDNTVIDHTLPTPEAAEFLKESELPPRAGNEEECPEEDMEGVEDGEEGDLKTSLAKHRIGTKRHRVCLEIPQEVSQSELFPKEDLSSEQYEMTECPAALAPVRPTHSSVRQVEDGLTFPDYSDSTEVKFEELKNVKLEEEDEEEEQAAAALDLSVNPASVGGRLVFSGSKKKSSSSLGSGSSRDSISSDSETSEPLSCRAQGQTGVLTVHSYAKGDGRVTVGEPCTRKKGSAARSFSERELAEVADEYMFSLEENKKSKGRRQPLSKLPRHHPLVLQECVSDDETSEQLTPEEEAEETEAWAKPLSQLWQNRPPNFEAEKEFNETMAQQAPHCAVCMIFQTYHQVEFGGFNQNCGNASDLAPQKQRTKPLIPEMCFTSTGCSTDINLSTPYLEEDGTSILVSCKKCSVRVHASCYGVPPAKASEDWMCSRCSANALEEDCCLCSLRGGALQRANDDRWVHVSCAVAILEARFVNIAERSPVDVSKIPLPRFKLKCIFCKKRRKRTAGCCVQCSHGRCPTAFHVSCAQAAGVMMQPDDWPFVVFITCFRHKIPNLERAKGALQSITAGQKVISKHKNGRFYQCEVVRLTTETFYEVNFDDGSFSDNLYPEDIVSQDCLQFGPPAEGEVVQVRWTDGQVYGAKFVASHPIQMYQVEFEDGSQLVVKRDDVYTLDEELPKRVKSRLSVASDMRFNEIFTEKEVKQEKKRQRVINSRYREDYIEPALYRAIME

As to `CC(=O)C[C@@H](O)CC(=O)[C@H]1OC(=O)[C@H](C)CCCCc2ccccc21`, the AC50 (as a rule, the midpoint of the concentration-response curve, whichever way the signal moves) was > 6 µM (inactive).
